Measurements as given in patent US10364263B2, “Cyclic phosphates and cyclic phosphoramidates for the treatment of neurologic disorders” (Retrophin, Inc., priority 2015, dated 2019).
Like-named read-outs stand apart in the source and are kept apart here.

Tests used:
[1] = Permeability in porcine brain endothelial cell blood-brain barrier model; type: in vitro ADME; conditions: pig (endothelial cells), co-cultured with rat astrocytes, pH 7.4, PBECs/As blood-brain barrier model, luminal to basal
Summary of the method: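 Co-culture of primary porcine brain endothelial cells on Transwell inserts over primary rat astrocytes, with TEER >500 Ω/cm^2 and FITC-dextran integrity control. Compound added apically in HBSS/20 mM Hepes pH 7.4/0.1% BSA and basal amount measured usually after 60 min, by LC-MS/MS, fluorescence or scintillation. Papp in cm/s, corrected for cell-free filter.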

[2] = Chemical stability in aqueous solution (phosphate buffered saline, NMR)
Method: (§1) To measure chemical stability in aqueous solution, the half-life (t1/2), or time needed for the concentration to decrease by half, was determined for select compounds in phosphate buffered saline solution. Compounds were dissolved in a solution containing 10 mM phosphate buffer (pH 7.5) and 5% of D2O to a final concentration of −1 mM. All spectra were obtained at 37° C. on a Bruker Avance 600 NMR spectrometer equipped with an inverse broad-band probe with z-gradients. Data were obtained every 15 min for a total time period of 4 h or longer, according to the observed stability. ^31P NMR was performed at 242.55 MHz, with gated decoupling of the protons. An observation frequency range of 14619.9 Hz and 32 K complex data points were used for acquisition. A pulse angle of 90° and a 4-sec pulse cycle were utilized. Thirty-two accumulations were obtained before Fourier transformation of the free induction decay. ^1H NMR spectra were acquired using the 1DNOESY experiment with water presaturation for better solvent suppression. An observation frequency range of 12019.23 Hz, a 10-sec pulse cycle, and 32 K complex data points were used for acquisition. Sixty-four scans were added prior to Fourier transformation. Integral data were obtained using the TopSpin software.
(§2) Stability was determined based on analysis of disappearance of the compounds as a function of incubation time. Quantification of test compounds was measured as a peak area relative to an internal standard. The elimination constant, k, was calculated by plotting mean disappearance values on a semi-logarithmic scale and fitting with a best fit linear regression. The half-life (t1/2) expressed in hours was derived using Equation 1: t1/2=ln2/(−k). Equation 1:

[3] = Stability in human plasma; type: in vitro ADME; conditions: 37° C.; for t1/2, Human Plasma, Diastereoisomer B: 3 μM
Summary of the method: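 Test compound at 3 μM (0.1% DMSO) was incubated in mouse or human plasma at 37 °C and sampled in duplicate at 0, 10, 20, 30, 40 and 60 min. Reactions were stopped with acetonitrile/formic acid containing internal standard. Remaining parent was measured by UPLC-MS/MS without a calibration curve.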

physchem = conditions: buffer, phosphate buffered saline, 10 mM phosphate buffer pH 7.5, 37° C.
Method: as §1, §2

[4] = Diastereoisomer A, read-out: Papp Diastereoisomer A
[5] = Diastereoisomer B, read-out: Papp Diastereoisomer B
[6] = pH 7.5, t1/2 (h) Diastereoisomer A, 10 mM phosphate buffer pH 7.5, 37° C., Diastereoisomer A = upfield shift in the 31P NMR
[7] = pH 7.5, t1/2 (h) Diastereoisomer B, 10 mM phosphate buffer pH 7.5, 37° C., Diastereoisomer B
[8] = Diastereoisomer A (upfield shift in 31P NMR), read-out: t1/2, Human Plasma, Diastereoisomer A (converted)
[9] = pH 7.5, t1/2 (h) Diastereoisomer A, Diastereoisomer A = upfield shift in the 31P NMR
[10] = pH 7.5, t1/2 (h) Diastereoisomer B, Diastereoisomer B
[11] = human, plasma, Diastereoisomer A (upfield shift in 31P NMR), read-out: t1/2, Human Plasma, Diastereoisomer A (converted)
[12] = human, plasma, Diastereoisomer B, read-out: t1/2, Human Plasma, Diastereoisomer B (converted)

Papp A→B at 60 min [1, 4] | Papp A→B at 60 min [1, 5] | half-life at 1 mM ([2]; pH 7.5, half-lives, phosphate buffered saline solution, both diastereoisomers) | half-life at 1 mM [2, 6] | half-life at 1 mM [2, 7] | half-life at 3 µM [3, 11] | half-life at 3 µM [3, 12] | half-life at 1 mM ([2]; pH 7.5, t1/2 (h), pH 7.5, 37° C., compound not chiral at phosphorous, one value spanning both columns) | Compound | half-life at 3 µM [3, 8] | t1/2, Human Plasma, Diastereoisomer B ([3]; Diastereoisomer B) | half-life (physchem; [9]) | half-life (physchem; [10])
1.58 ×10⁻⁶ cm/s | 2.56 ×10⁻⁶ cm/s | – | – | – | < 0.16 h | < 0.16 h | – | COC(=O)CCNC(=O)[C@@H]1OP(=O)(OCOC(=O)c2cncs2)OCC1(C)C (stereo partly drawn) [Compound No. 70, (((4R)-4-((3-methoxy-3-oxopropyl)carbamoyl)-5,5-dimethyl-2-oxido-1,3,2-dioxaphosphinan-2-yl)oxy)methyl thiazole-5-carboxylate] | – | – | – | –
22.8 ×10⁻⁶ cm/s | 29.9 ×10⁻⁶ cm/s | – | – | – | > 1 h | < 0.16 h | – | COC(=O)CCNC(=O)[C@@H]1OP(=O)(OCOC(=O)OC(C)C)OCC1(C)C (stereo partly drawn) [Compound No. 69, Methyl 3-((4R)-2-(((isopropoxycarbonyl)oxy)methoxy)-5,5-dimethyl-2-oxido-1,3,2-dioxaphosphinane-4-carboxamido)propanoate] | – | – | – | –
0.45 ×10⁻⁶ cm/s | – | – | – | – | > 1 h | – | – | CC(C)(C)C(=O)OCO[P@@]1(=O)OCC(C)(C)[C@H](C(=O)NCCC(=O)O)O1 [Compound No. 91, 3-((2S,4R)-5,5-dimethyl-2-oxido-2-((pivaloyloxy)methoxy)-1,3,2-dioxaphosphinane-4-carboxamido)propanoic acid] | – | – | – | –
16 ×10⁻⁶ cm/s | 20.7 ×10⁻⁶ cm/s | – | 87 h | 13 h | < 0.16 h | < 0.16 h | – | COC(=O)CCNC(=O)[C@@H]1OP(=O)(OCOC(=O)c2ccccc2)OCC1(C)C (stereo partly drawn) [Compound No. 64, (((4R)-4-((3-methoxy-3-oxopropyl)carbamoyl)-5,5-dimethyl-2-oxido-1,3,2-dioxaphosphinan-2-yl)oxy)methyl benzoate] | – | – | – | –
20.3 ×10⁻⁶ cm/s | 18.3 ×10⁻⁶ cm/s | – | 40.5 h | 7.2 h | > 1 h | < 0.16 h | – | COC(=O)CCNC(=O)[C@@H]1OP(=O)(OCOC(=O)C(C)(C)C)OCC1(C)C (stereo partly drawn) [Compound No. 65, (((4R)-4-((3-methoxy-3-oxopropyl)carbamoyl)-5,5-dimethyl-2-oxido-1,3,2-dioxaphosphinan-2-yl)oxy)methyl pivalate] | – | – | – | –
10.1 ×10⁻⁶ cm/s | 14.5 ×10⁻⁶ cm/s | – | – | – | > 1 h | 0.96 h | – | CCc1cc(C(=O)OCOP2(=O)OCC(C)(C)[C@H](C(=O)NCCC(=O)OC)O2)n(C)n1 (stereo partly drawn) [Compound No. 84, (((4R)-4-((3-methoxy-3-oxopropyl)carbamoyl)-5,5-dimethyl-2-oxido-1,3,2-dioxaphosphinan-2-yl)oxy)methyl 3-ethyl-1-methyl-1H-pyrazole-5-carboxylate] | – | – | – | –

The next lines start with the molecule.

Compound | Papp A→B at 60 min [1, 4] | Papp A→B at 60 min [1, 5] | half-life at 1 mM ([2]; pH 7.5, half-lives, phosphate buffered saline solution, both diastereoisomers) | half-life at 1 mM [2, 6] | half-life at 1 mM [2, 7] | half-life at 3 µM [3, 11] | half-life at 3 µM [3, 12] | half-life at 1 mM ([2]; pH 7.5, t1/2 (h), pH 7.5, 37° C., compound not chiral at phosphorous, one value spanning both columns) | half-life at 3 µM [3, 8] | t1/2, Human Plasma, Diastereoisomer B ([3]; Diastereoisomer B) | half-life (physchem; [9]) | half-life (physchem; [10])
COC(=O)CCNC(=O)[C@@H]1OP(=O)(N[C@@H](C)C(=O)OCc2ccccc2)OCC1(C)C (stereo partly drawn) [Compound No. 11, Benzyl ((4R)-4-((3-methoxy-3-oxopropyl)carbamoyl)-5,5-dimethyl-2-oxido-1,3,2-dioxaphosphinan-2-yl)-L-alaninate] | 3.52 ×10⁻⁶ cm/s | 3.12 ×10⁻⁶ cm/s | > 60 h | > 100 h | > 60 h | – | – | – | – | – | – | –
COC(=O)CCNC(=O)[C@@H]1OP(=O)(N[C@H](C)C(=O)OC)OCC1(C)C (stereo partly drawn) [compound 16, methyl 3-((4R)-2-(((R)-1-methoxy-1-oxopropan-2-yl)amino)-5,5-dimethyl-2-oxido-1,3,2-dioxaphosphinane-4-carboxamido)propanoate] | 3.33 ×10⁻⁶ cm/s | 4.35 ×10⁻⁶ cm/s | – | – | – | – | – | – | > 1 h | >1 h | > 80 h | > 80 h
COC(=O)CCNC(=O)[C@@H]1OP(=O)(N[C@@H](C)C(=O)OCCc2ccccc2)OCC1(C)C (stereo partly drawn) [Compound No. 2, Methyl 3-((4R)-5,5-dimethyl-2-oxido-2-(((S)-1-oxo-1-phenethoxypropan-2-yl)amino)-1,3,2-dioxaphosphinane-4-carboxamido)propanoate] | 3.35 ×10⁻⁶ cm/s | 2.61 ×10⁻⁶ cm/s | – | – | – | 0.95 h | 0.9 h | – | – | – | – | –
COC(=O)CCNC(=O)[C@@H]1OP(=O)(N[C@@H](C)C(=O)OCc2cccnc2)OCC1(C)C (stereo partly drawn) [compound 24, methyl 3-((4R)-5,5-dimethyl-2-oxido-2-(((S)-1-oxo-1-(pyridin-3-ylmethoxy)propan-2-yl)amino)-1,3,2-dioxaphosphinane-4-carboxamido)propanoate] | 0.54 ×10⁻⁶ cm/s | 0.6 ×10⁻⁶ cm/s | – | – | – | 0.26 h | 0.82 h | – | – | – | – | –
COC(=O)[C@H](C)NP1(=O)OCC(C)(C)[C@H](C(=O)NCCC(=O)OCc2ccncc2)O1 (stereo partly drawn) [compound 20, (2S)-methyl 2-(((4R)-5,5-dimethyl-2-oxido-4-((3-oxo-3-(pyridin-4-ylmethoxy)propyl)carbamoyl)-1,3,2-dioxaphosphinan-2-yl)amino)propanoate] | 4.79 ×10⁻⁶ cm/s | 3.38 ×10⁻⁶ cm/s | – | > 80 h | > 80 h | 0.74 h | > 1 h | – | – | – | – | –
COC(=O)CCNC(=O)[C@@H]1OP(=O)(N[C@@H](Cc2ccccc2)C(=O)OCc2ccccc2)OCC1(C)C (stereo partly drawn) [compound 10, benzyl ((4R)-4-((3-methoxy-3-oxopropyl)carbamoyl)-5,5-dimethyl-2-oxido-1,3,2-dioxaphosphinan-2-yl)-L-phenylalaninate] | 10.1 ×10⁻⁶ cm/s | 14 ×10⁻⁶ cm/s | – | – | – | – | – | – | – | – | – | –
COC(=O)CCNC(=O)[C@@H]1OP(=O)(OCCSC(=O)C(C)(C)C)OCC1(C)C (stereo partly drawn) [Compound No. 2-133, Methyl 3-((4R)-5,5-dimethyl-2-oxido-2-(2-(pivaloylthio)ethoxy)-1,3,2-dioxaphosphinane-4-carboxamido)propanoate] | 21.1 ×10⁻⁶ cm/s | 21 ×10⁻⁶ cm/s | – | – | – | – | – | – | – | – | – | –
COC(=O)CCNC(=O)[C@@H]1OP(=O)(NCCN2CCCC2)OCC1(C)C (stereo partly drawn) [compound 109, methyl 3-((4R)-5,5-dimethyl-2-oxido-2-((2-(pyrrolidin-1-yl)ethyl)amino)-1,3,2-dioxaphosphinane-4-carboxamido)propanoate] | 5.26 ×10⁻⁶ cm/s | – | – | – | – | – | – | – | > 1 h | – | 48 h | 15.4 h
COC(=O)CCNC(=O)[C@@H]1OP(=O)(N[C@@H](C)C(=O)OC)OCC1(C)C (stereo partly drawn) [compound 5, methyl 3-((4R)-2-(((S)-1-methoxy-1-oxopropan-2-yl)amino)-5,5-dimethyl-2-oxido-1,3,2-dioxaphosphinane-4-carboxamido)propanoate] | 6.27 ×10⁻⁶ cm/s | 5.06 ×10⁻⁶ cm/s | – | – | – | – | – | – | > 1 h | >1 h | 40 h | 40 h
COC(=O)CCNC(=O)[C@@H]1OP(=O)(NCCC(=O)OCc2ccccc2)OCC1(C)C (stereo partly drawn) [compound 117, benzyl 3-(((4R)-4-((3-methoxy-3-oxopropyl)carbamoyl)-5,5-dimethyl-2-oxido-1,3,2-dioxaphosphinan-2-yl)amino)propanoate] | 1.95 ×10⁻⁶ cm/s | 2.9 ×10⁻⁶ cm/s | – | – | – | > 1 h | > 1 h | – | – | – | – | –
COC(=O)CCNC(=O)[C@@H]1OP(=O)(N[C@@H](C)C(=O)OCc2cc(C)cc(C)c2)OCC1(C)C (stereo partly drawn) [compound 3, (2S)-3,5-dimethylbenzyl 2-(((4R)-4-((3-methoxy-3-oxopropyl)carbamoyl)-5,5-dimethyl-2-oxido-1,3,2-dioxaphosphinan-2-yl)amino)propanoate] | 9.99 ×10⁻⁶ cm/s | 8.47 ×10⁻⁶ cm/s | – | > 80 h | > 80 h | > 1 h | > 1 h | – | – | – | – | –
CC1(C)COP(=O)(O)O[C@H]1C(=O)NCCC(=O)O [compound 108, 3-((4R)-2-hydroxy-5,5-dimethyl-2-oxido-1,3,2-dioxaphosphinane-4-carboxamido)propanoic acid] | 0.58 ×10⁻⁶ cm/s | – | – | – | – | 0.83 h | – | > 100 h | – | – | – | –
